Blank lines part the entries; values can stand above or below the compound they belong to. Calls of active or inactive are those of the source.
Tests used:
[1] = molecular target: Intestinal-type alkaline phosphatase (Mus musculus, UniProt P24822); assay: PubChem AID 488785; type: functional
[2] = molecular target: Intestinal-type alkaline phosphatase (Homo sapiens, UniProt P09923); assay: inhibition of human intestinal alkaline phosphatase – biochemical, dose response (AID 488876); type: functional
Sequence of Intestinal-type alkaline phosphatase (Homo sapiens, UniProt P09923) (P09923 whole entry): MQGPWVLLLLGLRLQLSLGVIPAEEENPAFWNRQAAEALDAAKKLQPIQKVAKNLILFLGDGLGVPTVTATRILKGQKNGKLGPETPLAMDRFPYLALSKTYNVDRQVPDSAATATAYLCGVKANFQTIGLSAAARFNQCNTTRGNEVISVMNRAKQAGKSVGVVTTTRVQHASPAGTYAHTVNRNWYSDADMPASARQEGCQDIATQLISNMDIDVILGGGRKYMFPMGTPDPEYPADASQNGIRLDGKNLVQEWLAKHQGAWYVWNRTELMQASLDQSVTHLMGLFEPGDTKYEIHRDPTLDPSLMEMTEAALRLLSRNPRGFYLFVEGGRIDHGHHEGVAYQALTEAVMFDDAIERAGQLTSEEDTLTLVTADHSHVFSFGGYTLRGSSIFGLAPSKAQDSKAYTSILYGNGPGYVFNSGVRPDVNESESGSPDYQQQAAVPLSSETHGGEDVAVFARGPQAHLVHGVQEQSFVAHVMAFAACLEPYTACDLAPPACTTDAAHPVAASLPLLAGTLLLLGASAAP

[3] = molecular target: T1, Alkaline phosphatase, tissue-nonspecific isozyme (Homo sapiens, UniProt P05186); assay: TNAP enzyme inhibition by screening hits, dose response, selectivity assay for mouse IAP inhibitor project, biochemical, human TNAP, uHTS hits (AID 488906); type: functional
T1 sequence (P05186 whole entry): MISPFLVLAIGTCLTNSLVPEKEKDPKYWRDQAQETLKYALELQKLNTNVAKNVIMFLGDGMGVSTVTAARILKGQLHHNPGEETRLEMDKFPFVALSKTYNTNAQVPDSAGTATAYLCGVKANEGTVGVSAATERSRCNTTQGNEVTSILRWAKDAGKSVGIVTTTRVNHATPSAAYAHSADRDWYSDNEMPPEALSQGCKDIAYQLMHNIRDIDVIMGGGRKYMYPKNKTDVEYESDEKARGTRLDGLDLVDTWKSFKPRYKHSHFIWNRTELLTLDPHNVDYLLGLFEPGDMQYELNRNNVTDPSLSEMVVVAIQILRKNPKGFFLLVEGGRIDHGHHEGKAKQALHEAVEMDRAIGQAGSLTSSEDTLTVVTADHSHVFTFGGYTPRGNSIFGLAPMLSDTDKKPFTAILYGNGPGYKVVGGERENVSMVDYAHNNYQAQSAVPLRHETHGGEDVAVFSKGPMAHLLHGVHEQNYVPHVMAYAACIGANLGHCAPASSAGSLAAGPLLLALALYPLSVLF

[4] = Luminescence Cell-Based Dose Retest to Confirm Inhibitors of Cancer Stem Cells. [Related pubchem assays (depositor defined):AID2717, AID2721]; type: functional; conditions: Homo sapiens
INS1 = assay: beta cell apoptosis inhibitors, cytokine rescue, dose response, luminescence, retest (AID 449756); type: functional, cell-based; conditions: Rattus norvegicus;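 further: cell death triggered by IL-1 beta plus TNF-alpha plus IFN-gamma mixture; protective hits raise ATP signal compared with cytokine alone wells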
[5] = molecular target: T2, Type-1 angiotensin II receptor (Homo sapiens, UniProt P30556); assay: AT1 receptor antagonists, dose response, selectivity assay for APJ receptor antagonist project, cell-based, uHTS hits (AID 463214); type: functional;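 further: antagonist potency against angiotensin II stimulated AT1 response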
T2 sequence (P30556 whole entry): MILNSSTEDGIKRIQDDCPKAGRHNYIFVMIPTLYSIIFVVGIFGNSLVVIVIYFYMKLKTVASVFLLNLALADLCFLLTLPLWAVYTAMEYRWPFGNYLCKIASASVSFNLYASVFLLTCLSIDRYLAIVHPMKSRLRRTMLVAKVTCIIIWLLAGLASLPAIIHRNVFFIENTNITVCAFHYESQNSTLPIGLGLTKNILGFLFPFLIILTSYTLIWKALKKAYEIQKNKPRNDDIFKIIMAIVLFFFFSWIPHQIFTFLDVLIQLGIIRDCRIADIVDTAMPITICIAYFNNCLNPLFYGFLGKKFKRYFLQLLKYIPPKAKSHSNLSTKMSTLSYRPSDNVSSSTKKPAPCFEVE

Beta-galactosidase = Beta-galactosidase (Escherichia coli, UniProt Q8VNN2); assay: PubChem AID 485352; type: functional
Sequence of Beta-galactosidase (Q8VNN2 whole entry): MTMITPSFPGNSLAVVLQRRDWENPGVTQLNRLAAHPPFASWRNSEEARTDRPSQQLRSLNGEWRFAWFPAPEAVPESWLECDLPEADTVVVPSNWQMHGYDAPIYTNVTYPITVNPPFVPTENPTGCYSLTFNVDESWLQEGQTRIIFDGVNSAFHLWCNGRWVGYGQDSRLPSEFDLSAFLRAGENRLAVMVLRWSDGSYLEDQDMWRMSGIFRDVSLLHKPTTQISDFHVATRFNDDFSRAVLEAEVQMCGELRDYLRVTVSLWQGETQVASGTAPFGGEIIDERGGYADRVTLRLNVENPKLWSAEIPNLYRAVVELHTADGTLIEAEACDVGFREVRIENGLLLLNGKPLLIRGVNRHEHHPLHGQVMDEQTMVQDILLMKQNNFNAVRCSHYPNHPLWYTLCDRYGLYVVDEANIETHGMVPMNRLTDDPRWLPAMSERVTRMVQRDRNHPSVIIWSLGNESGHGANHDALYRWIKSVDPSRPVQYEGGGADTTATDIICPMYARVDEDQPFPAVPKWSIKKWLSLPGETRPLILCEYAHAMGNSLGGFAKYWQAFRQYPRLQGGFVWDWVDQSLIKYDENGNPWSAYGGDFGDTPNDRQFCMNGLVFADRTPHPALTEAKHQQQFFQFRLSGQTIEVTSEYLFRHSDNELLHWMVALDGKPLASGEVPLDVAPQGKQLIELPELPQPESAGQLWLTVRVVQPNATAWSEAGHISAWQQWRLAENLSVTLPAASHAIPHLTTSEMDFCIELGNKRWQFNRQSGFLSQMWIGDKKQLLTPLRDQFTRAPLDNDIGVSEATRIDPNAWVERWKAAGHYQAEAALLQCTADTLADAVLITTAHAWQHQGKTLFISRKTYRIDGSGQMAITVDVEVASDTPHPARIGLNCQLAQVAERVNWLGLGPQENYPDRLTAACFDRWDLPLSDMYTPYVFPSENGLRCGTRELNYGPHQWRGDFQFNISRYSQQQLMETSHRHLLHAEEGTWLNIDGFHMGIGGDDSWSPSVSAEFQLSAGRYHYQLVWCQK

H9c2 = assay: cells; type: functional, cell-based; conditions: Rattus norvegicus, H9c2, Myocardium;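 further: confirmatory concentration-response retest of ultra-high-throughput screening hits for modulation of myocardial damage; cell death induced by hydrogen peroxide oxidative stress; compound pretreatment for 60 min then peroxide exposure for 2 h; potency is for protecting the cells against peroxide damage rather than for killing them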
[6] = molecular target: Glucose-6-phosphate 1-dehydrogenase (Homo sapiens, UniProt P11413); assay: human G6PD enzyme inhibitors, dose response, selectivity assay for P. falciparum G6PD inhibitor project, biochemical, fluorescence (AID 504792); type: functional
Sequence of Glucose-6-phosphate 1-dehydrogenase (P11413 whole entry): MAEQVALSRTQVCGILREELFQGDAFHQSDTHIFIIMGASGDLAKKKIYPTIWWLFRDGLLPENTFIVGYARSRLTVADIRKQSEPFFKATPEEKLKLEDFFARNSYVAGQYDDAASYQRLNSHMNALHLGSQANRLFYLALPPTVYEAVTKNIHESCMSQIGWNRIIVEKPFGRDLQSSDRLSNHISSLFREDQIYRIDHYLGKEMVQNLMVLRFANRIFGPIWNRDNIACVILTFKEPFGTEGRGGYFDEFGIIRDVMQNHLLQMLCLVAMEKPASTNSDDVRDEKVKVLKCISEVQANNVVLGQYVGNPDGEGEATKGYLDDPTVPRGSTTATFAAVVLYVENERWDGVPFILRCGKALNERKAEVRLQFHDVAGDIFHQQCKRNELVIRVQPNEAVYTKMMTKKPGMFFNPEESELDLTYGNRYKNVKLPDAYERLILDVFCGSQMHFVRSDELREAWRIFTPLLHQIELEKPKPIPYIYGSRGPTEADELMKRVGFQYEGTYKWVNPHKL

A-375 [7] = assay: MITF: Counter assay: A375 proliferation Measured in Cell-Based System Using Plate Reader - 2084-03_Inhibitor_Dose_DryPowder_Activity. [Related pubchem assays (depositor defined):AID488944]; type: functional; conditions: Homo sapiens
A-375 [8] = assay: A375 melanoma cell viability reduction, dose response, counter-screen for MITF modulator project, cherry-pick samples, set 2 (AID 540335); type: functional, cell-based; conditions: Homo sapiens

Sequence of Intestinal-type alkaline phosphatase (Mus musculus, UniProt P24822) (P24822 whole entry): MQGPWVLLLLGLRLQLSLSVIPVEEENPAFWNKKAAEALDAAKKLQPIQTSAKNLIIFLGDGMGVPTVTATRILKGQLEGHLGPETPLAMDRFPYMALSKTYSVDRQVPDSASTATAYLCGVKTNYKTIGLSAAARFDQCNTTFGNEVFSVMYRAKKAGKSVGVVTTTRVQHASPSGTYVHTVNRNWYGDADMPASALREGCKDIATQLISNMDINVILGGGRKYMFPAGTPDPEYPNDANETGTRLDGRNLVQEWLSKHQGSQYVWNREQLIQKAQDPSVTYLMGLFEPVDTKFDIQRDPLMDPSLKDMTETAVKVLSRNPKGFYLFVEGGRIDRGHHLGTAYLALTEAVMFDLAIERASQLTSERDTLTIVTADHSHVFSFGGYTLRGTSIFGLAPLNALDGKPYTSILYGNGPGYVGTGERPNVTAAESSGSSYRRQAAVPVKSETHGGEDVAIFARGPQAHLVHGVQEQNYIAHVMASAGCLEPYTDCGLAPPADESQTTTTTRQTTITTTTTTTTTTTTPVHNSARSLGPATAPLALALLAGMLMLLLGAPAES

IC50 [1]: 9.13 µM (active)
IC50 [2]: > 100 µM (inactive)
IC50 [3]: > 100 µM (inactive)
Structure (SMILES): CC(/C=C/C1(O)C(C)CC(=O)CC1(C)C)OC1OC(CO)C(O)C(O)C1O (stereo not drawn)

Structure (SMILES): CC1(C)Cc2c(c(N3CCOCC3)nc3sc4c(NN)ncnc4c23)CS1
AC50 [4]: 7.43 µM (active)
AC50 (INS1): 2.08 µM (active)
IC50 [5]: 16.8 µM (active)
EC50 (Beta-galactosidase): > 40 µM (inactive)
IC50 (H9c2): 10 µM (active)

Structure (SMILES): O=C(Nc1ccc(N2CCOCC2)c(Cl)c1)c1ccc(Cl)cc1
IC50 [6]: > 80 µM (inactive)

Structure (SMILES): Cc1ccc2oc(=O)n(CCCOc3ccccc3)c2c1
AC50 (A-375 [7]): > 35 µM (active)
AC50 (A-375 [8]): > 35 µM (active)

Structure (SMILES): Cc1cccc(OCC(=O)Nc2cccc(O)c2)c1
AC50 (A-375 [7]): > 35 µM (active)
AC50 (A-375 [8]): > 35 µM (active)
